Data reported in patent EP4803520A1, “COMPOUND CONTAINING FUSED BICYCLIC RING, PHARMACEUTICAL COMPOSITION, AND USE THEREOF” (priority 2023, dated 2025).

Key:
[1] = test system: MDA-MB-436 cells; test: Assay on inhibitory activity for MDA-MB-436 cell proliferation (CCK-8); format: cell-based; conditions: 168 h of incubation, CCK-8, absorbance at 450 nm
Description: MDA-MB-436 cells in a good growth state were collected into a centrifuge tube, adjusted to a cell density of 2 × 10^4 cells/mL using a complete medium (DMEM high glucose + 10% FBS + 1× insulin-transferrin-selenium (ITS-G) + 16 µg/mL reduced glutathione), and seeded in a 96-well plate (100 µL/well), and the plate was incubated overnight in a cell incubator. Compounds were added using a pipettor, such that the final concentrations of the compounds were 400 nM-0.02 nM. The wells were set in duplicate, and a control well was set. After 168 h of incubation in the cell incubator, the assay reagent CCK-8 (manufacturer: Dojindo Laboratories, Beijing; 10 µL/well) was added. After 1.5 h of incubation in the cell incubator, the absorbance values were measured at 450 nm on a PerkinElmer Envision microplate reader. […] Inhibitory activity results for DA-MB-436 cell proliferation of compounds

[2] = molecular target: T1, PARP1 (Homo sapiens, UniProt P09874); test: PARP1-Tracer activity assay (FP method); format: binding; parameters: purchased BPS 80551; conditions: for PARP2/PARP 1 selectivity: ratio of PARP2 IC50 to PARP1 IC50, FP method
Description: (§1) The enzyme inhibition activity of the compounds against PARP1/2-Tracer was tested using the FP method. First, 100 nL of inhibitors with a final concentration of 1% DMSO were transferred to a 384-well reaction plate (Corning 4514) using Echo655. Then, 5 µL of a PARP1/2 (BPS, Cat. No. 80501/80502) enzyme solution was added to each well, followed by centrifugation at 1000 RPM for 1 min at room temperature, and the reaction was allowed to proceed for 10 min. Subsequently, 5 µL of a Tracer (ICE, Cat. No. 001315-009) solution was added to each well, followed by centrifugation at 1000 RPM for 1 min at room temperature, and the reaction was allowed to proceed for 60 min. PARP1/2 and Tracer were prepared in a buffer containing 50 mM Tris (pH 8.0), 10 mM MgCl2, 150 mM NaCl, and 0.001% Triox-100, with final concentrations of 5/10 nM and 2.5 nM, respectively. Finally, the FP signal was read using BMG (PHERAstar FSX), and the IC50 values and nonlinear regression curve fitting were obtained using GraphPad Prism software.

[3] = molecular target: T1, PARP1; test: Assay on PARP1 protein activity (chemiluminescence assay kit)
Description: A chemiluminescence assay kit (BPS, Cat. No. 80551) was used. 50 µL of 1× histone was added to a 96-well plate and incubated overnight at 4 °C. Each well was washed 3 times with 200 µL of a PBST buffer (containing 0.05% Tween-20), and the liquid was removed from the plate. 200 µL of blocking buffer 3 was added, and the plate was blocked at room temperature for 60-90 min. The blocking solution was discarded, and the plate was washed 3 times with a PBST buffer, followed by the removal of the liquid from the plate. 25 µL of a master mix (2.5 µL of a 10× PARP buffer + 2.5 µL of a 10× biotinylated substrate assay mix + 5 µL of activated DNA (5×) + 15 µL of water) and 5 µL of a 1× PARP buffer were added to each well. Compounds were sprayed using a nanoliter pipettor in the compound groups. 20 µL of a 1× PARP buffer was added to the blank control group, and 20 µL of PARP 1 enzyme (2.4 ng/mL) was added to the other wells to initiate the reaction. The plate was incubated at room temperature for 1 h. 50 µL of streptavidin-HRP (diluted 1:50 in blocking buffer 3) was added to each well, and the plate was incubated at room temperature for 30 min. The plate was washed three times with PBST, and the liquid was removed from the plate. 50 µL of ELISA ECL substrate A and 50 µL of ELISA ECL substrate B were mixed on ice before use, and 100 µL were added to each well.

[4] = test system: MDA-MB-436 BRCA1m human breast cancer nude mouse subcutaneous xenograft tumor model; test: Pharmacodynamic evaluation in nude mouse subcutaneous xenograft tumor model; format: in vivo, nude mice; conditions: ig 4 mg/kg once daily, after 22 days of administration
Description: MDA-MB-436 BRCA1m human breast cancer cells (5 × 10^6 cells/mouse) were inoculated subcutaneously into the right axilla of SPF-grade female nude mice. When the mean tumor volume reached about 150 mm^3, the animals were grouped.
The day of grouping was defined as day 0. The compound of the present application was intragastrically administered once on day 0, and was then administered once daily at a dose of 4 mg/kg with a vehicle of DMSO:PEG400 = 10:90 (v/v). The tumor volume and body weight were measured twice to thrice every week, and the data were recorded. The general behavior of the mice was observed and recorded every day. After the experiment was completed, the tumors were extracted, weighed, and photographed.
The detection parameters and the calculation formulas are as follows: Tumor volume TV (mm^3) = 1/2 × (a×b^2), [formula] where a represents the long diameter of the tumor, and b represents the short diameter of the tumor. Relative tumor volume RTV = TVt /TV0 , [formula] wherein TV0 represents the tumor volume on day 0, and TVt represents the tumor volume at each measurement. Relative tumor proliferation rate T/C (%) = (TRTV/CRTV) × 100%, [formula] where TRTV represents RTV of the treatment group, and CRTV represents RTV of the vehicle control group. […]

[5] = Mouse pharmacokinetics; format: in vivo; conditions: plasma, ICR mice
Description: A non-compartmental model was used for fitting to calculate relevant pharmacokinetic parameters, and the results are shown in Table 3. Table 3. Pharmacokinetic results of compounds in mice

[6] = Rat pharmacokinetics; format: in vivo; conditions: plasma, SD rats
Description: A non-compartmental model was used for fitting to calculate relevant pharmacokinetic parameters, and the results are shown in Table 4. Table 4. Pharmacokinetic results of compounds in rats

[7] = molecular target: T2, PARP2 (Homo sapiens, UniProt Q9UGN5); test: PARP2-Tracer activity assay (FP method); format: binding; conditions: PARP2 10 nM, Tracer 2.5 nM
T2 construct: purchased BPS 80502
Description: as §1

[8] = Experiment on brain distribution in rats; format: in vivo, SD rats; conditions: rat, po

T1 sequence (P09874 whole entry): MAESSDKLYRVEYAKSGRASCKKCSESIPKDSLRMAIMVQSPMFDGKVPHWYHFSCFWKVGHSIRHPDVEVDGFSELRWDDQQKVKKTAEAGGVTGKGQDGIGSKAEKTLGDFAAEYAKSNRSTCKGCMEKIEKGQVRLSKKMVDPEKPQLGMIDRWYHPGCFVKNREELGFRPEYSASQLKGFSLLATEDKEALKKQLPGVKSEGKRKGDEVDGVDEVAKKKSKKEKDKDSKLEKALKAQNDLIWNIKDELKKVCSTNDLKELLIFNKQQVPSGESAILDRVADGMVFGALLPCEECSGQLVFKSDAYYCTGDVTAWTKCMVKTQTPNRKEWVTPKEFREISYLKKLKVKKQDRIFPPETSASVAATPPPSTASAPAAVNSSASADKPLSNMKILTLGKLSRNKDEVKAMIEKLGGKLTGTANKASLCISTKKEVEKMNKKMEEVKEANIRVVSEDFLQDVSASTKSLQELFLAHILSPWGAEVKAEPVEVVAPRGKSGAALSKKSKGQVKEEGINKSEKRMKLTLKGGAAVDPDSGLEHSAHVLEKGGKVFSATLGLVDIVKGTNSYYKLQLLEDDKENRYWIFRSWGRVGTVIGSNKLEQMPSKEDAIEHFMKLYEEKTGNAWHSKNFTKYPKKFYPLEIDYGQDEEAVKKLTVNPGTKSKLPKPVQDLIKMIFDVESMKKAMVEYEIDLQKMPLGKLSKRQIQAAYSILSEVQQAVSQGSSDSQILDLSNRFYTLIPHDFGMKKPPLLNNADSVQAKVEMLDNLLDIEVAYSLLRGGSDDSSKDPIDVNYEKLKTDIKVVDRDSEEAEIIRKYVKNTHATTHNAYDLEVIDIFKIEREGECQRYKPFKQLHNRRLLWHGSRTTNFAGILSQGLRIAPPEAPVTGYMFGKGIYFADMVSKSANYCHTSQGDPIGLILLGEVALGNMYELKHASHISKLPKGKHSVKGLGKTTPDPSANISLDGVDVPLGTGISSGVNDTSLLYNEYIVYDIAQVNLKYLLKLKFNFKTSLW
T2 sequence (Q9UGN5 whole entry): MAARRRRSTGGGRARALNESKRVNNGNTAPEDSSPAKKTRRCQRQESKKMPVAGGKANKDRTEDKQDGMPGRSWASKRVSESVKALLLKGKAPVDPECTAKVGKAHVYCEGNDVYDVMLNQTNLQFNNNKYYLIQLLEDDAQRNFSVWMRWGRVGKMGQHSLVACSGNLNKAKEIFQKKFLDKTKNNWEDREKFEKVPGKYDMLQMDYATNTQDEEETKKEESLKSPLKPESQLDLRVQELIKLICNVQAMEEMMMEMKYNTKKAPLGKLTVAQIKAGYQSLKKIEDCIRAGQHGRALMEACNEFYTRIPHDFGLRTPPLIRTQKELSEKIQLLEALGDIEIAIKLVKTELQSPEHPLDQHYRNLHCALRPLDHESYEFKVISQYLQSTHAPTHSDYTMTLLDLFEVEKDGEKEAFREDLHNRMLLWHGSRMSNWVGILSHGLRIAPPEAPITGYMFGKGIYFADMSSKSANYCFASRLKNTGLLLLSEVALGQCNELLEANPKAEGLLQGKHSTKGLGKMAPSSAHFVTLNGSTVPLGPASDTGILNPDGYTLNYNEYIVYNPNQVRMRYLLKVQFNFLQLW

Compound	IC50 ([1]; Homo sapiens, MDA-MB-436)	IC50 [3]	also measured
CNC(=O)c1nc2c(s1)CN(C1CN(Cc3ccc4cc(C5CC5)c(=O)[nH]c4c3)C1)C2 [Compound 31]	≤ 50 nM	–	–
CNC(=O)c1cc2c(s1)CN(C1CN(Cc3ccc4cc(C(F)(F)F)c(=O)[nH]c4c3)C1)C2 [Compound 33]	≤ 50 nM	–	–
CNC(=O)n1cc2c(n1)CN(C1CN(Cc3ccc4c(c3)[nH]c(=O)n3cccc43)C1)C2 [Compound 34]	≤ 50 nM	–	–
CNC(=O)n1cc2c(n1)CN([C@H]1CN(Cc3ccc4cc(C(F)(F)F)c(=O)[nH]c4c3)[C@H]1C)C2 [Compound 36]	≤ 50 nM	–	–
CCc1cc2ccc(CN3C[C@H](N4Cc5cn(C(=O)NC)nc5C4)[C@@H]3C)cc2[nH]c1=O [Compound 41]	≤ 50 nM	< 10 nM	–
CNC(=O)n1cc2c(n1)CN([C@H]1CN(Cc3ccc4cc(C5CC5)c(=O)[nH]c4c3)[C@H]1C)C2 [Compound 42]	≤ 50 nM	< 1 nM	–
CNC(=O)n1cc2c(n1)CN([C@@H]1CN(Cc3ccc4cc(C5CC5)c(=O)[nH]c4c3)[C@H]1C)C2 [Compound 43]	–	–	IC50 [1]: ≤ 50 nM
CCc1nc2ccc(CN3C[C@H](N4Cc5cn(C(=O)NC)nc5C4)[C@@H]3C)cc2[nH]c1=O [Compound 45]	≤ 50 nM	–	PARP2/PARP 1 selectivity [2]: >200 fold
CCc1cc2ncc(CN3C[C@H](N4Cc5cn(C(=O)NC)nc5C4)[C@@H]3C)cc2[nH]c1=O [Compound 47]	≤ 50 nM	< 1 nM	–
CNC(=O)n1cc2c(n1)CN(C1CN(Cc3ccc4c(C)c(C(F)(F)F)c(=O)[nH]c4c3)C1)C2 [Compound 50]	≤ 50 nM	< 1 nM	–
CCc1nc2ccc(CN3C[C@H](N4Cc5cn(C(=O)NC)nc5C4)[C@@H]3C)c(F)c2[nH]c1=O [Compound 51]	≤ 50 nM	–	–
CNC(=O)n1cc2c(n1)CN([C@H]1CN(Cc3ccc4c(C)c(C(F)(F)F)c(=O)[nH]c4c3)[C@H]1C)C2 [Compound 54]	≤ 50 nM	< 1 nM	–
CNC(=O)n1cc2c(n1)CN([C@H]1CN(Cc3ccc4cc(C(F)(F)F)c(=O)[nH]c4c3F)[C@H]1C)C2 [Compound 55]	≤ 50 nM	< 1 nM	tumor inhibition rate [4]: up to 97%; AUC(0-t) ([5]; iv 0.1 mg/kg): 6650 ng·h/mL; half-life ([5]; iv 0.1 mg/kg): 816 min; AUC(0-t) ([5]; po, ig 0.1 mg/kg): 5490 ng·h/mL; Cmax ([5]; po, ig 0.1 mg/kg): 331 ng/mL; AUC(0-t) ([6]; iv 0.1 mg/kg): 326 ng·h/mL; half-life ([6]; iv 0.1 mg/kg): 284 min; AUC(0-t) ([6]; po, ig 0.5 mg/kg): 1710 ng·h/mL; Cmax ([6]; po, ig 0.5 mg/kg): 208 ng/mL; half-life ([6]; po, ig 0.5 mg/kg): 286 min; IC50 [7]: > 500 nM; IC50 ([2]; FP method, PARP1 5 nM, Tracer 2.5 nM): 3.1 nM; PARP2/PARP 1 selectivity [2]: >200 fold; Kp at 8 h ([8]; brain, 2 mg/kg, read-out: Brain-to-blood ratio): 0.082; AUC at 8 h ([8]; SD rats, ig 2 mg/kg, brain homogenate): 453 ng·h/mL; AUC(0-t) at 8 h ([8]; SD rats, ig 2 mg/kg, plasma): 5530 ng·h/mL

More lines, main results first:

IC50 ([1]; Homo sapiens, MDA-MB-436)	IC50 [3]	Compound	also measured
≤ 50 nM	–	CNC(=O)n1cc2c(n1)CN(C1CN(Cc3ccc4cc(C(F)(F)F)c(=O)[nH]c4c3)C1)C2 [Compound 24]	PARP2/PARP 1 selectivity [2]: >200 fold
≤ 50 nM	–	CCc1cc2c(Cl)cc(CN3CC(N4Cc5cn(C(=O)NC)nc5C4)C3)cc2[nH]c1=O [Compound 25]	–
≤ 50 nM	–	CNC(=O)n1cc2c(n1)CN(C1CN(Cc3ccc4cc(Cl)c(=O)[nH]c4c3)C1)C2 [Compound 26]	–
≤ 50 nM	–	CNC(=O)c1nc2c(s1)CN(C1CN(Cc3ccc4cc(Cl)c(=O)[nH]c4c3)C1)C2 [Compound 27]	–
≤ 50 nM	–	CNC(=O)c1nc2c(s1)CN(C1CN(Cc3ccc4cc(C(F)(F)F)c(=O)[nH]c4c3)C1)C2 [Compound 28]	–
≤ 50 nM	–	CCc1cc2ccc(CN3CC(N4Cc5cn(C(=O)NC)nc5C4)C3)c(F)c2[nH]c1=O [Compound 29]	–
≤ 50 nM	–	CCc1cc2ccc(CN3CC(N4Cc5nc(C(=O)NC)sc5C4)C3)c(F)c2[nH]c1=O [Compound 30]	–
